From the NIST ThermoML archive (doi:10.1016/j.tca.2011.02.002)

Key:
[1] = excess molar enthalpy (molar enthalpy of mixing); xn = mol fraction of the nth substance listed; conditions: 308.15 K, 101 kPa, Liquid, 2-drop calorimeter (CSC 4600_
[2] = xn = mol fraction of the nth substance listed; conditions: 101 kPa, Liquid; for mass density: Vibrating tube method

Cc1ccccn1 [2-methylpyridine] + C1CCOCC1
[1]
Conditions	excess molar enthalpy [kcal/mol]
x2 = 0.0511	0.00394
x2 = 0.1102	0.00915
x2 = 0.1773	0.016
x2 = 0.2121	0.0196
x2 = 0.2683	0.0253
x2 = 0.3182	0.03
x2 = 0.3905	0.0356
x2 = 0.4304	0.0391
x2 = 0.4822	0.0413
x2 = 0.5216	0.0437
x2 = 0.5755	0.0442
x2 = 0.6213	0.0442
x2 = 0.6786	0.0428
x2 = 0.7288	0.0409
x2 = 0.7754	0.0373
x2 = 0.8216	0.0323
x2 = 0.8852	0.0232
x2 = 0.9217	0.0168

[2]
Conditions	mass density, 298.15 K [kg/m3]	mass density, 303.15 K [kg/m3]	mass density, 308.15 K [kg/m3]	speed of sound, 298.15 K [m/s]	speed of sound, 303.15 K [m/s]	speed of sound, 308.15 K [m/s]
x2 = 0	939.802	935.117	930.414	1380.1	1361	1339.9
x2 = 0.0367	937.731	933.031	928.307	1376.6	1357.6	1336.4
x2 = 0.0731	935.665	930.947	926.208	1373	1354.1	1332.8
x2 = 0.1274	932.552	927.811	923.053	1367.7	1348.5	1327.2
x2 = 0.1751	929.795	925.036	920.257	1363	1343.5	1322
x2 = 0.2373	926.162	921.378	916.581	1356.6	1336.7	1315.2
x2 = 0.2752	923.926	919.13	914.323	1352.6	1332.5	1310.9
x2 = 0.3262	920.901	916.081	911.259	1347.2	1326.7	1305.1
x2 = 0.3817	917.578	912.735	907.895	1341.2	1320.4	1298.7
x2 = 0.4248	914.974	910.121	905.265	1336.5	1315.4	1293.7
x2 = 0.4916	910.915	906.032	901.153	1328.9	1307.5	1285.8
x2 = 0.5525	907.178	902.268	897.366	1322	1300.4	1278.5
x2 = 0.6147	903.336	898.401	893.468	1314.9	1293	1271.1
x2 = 0.6674	900.064	895.101	890.14	1308.7	1286.8	1264.8
x2 = 0.7018	897.916	892.937	887.961	1304.7	1282.7	1260.7
x2 = 0.7736	893.419	888.402	883.383	1296.3	1274.2	1252
x2 = 0.8219	890.381	885.337	880.292	1290.6	1268.4	1246.2
x2 = 0.8673	887.518	882.452	877.377	1285.3	1262.9	1240.7
x2 = 0.9428	882.751	877.641	872.516	1276.5	1253.8	1231.5
